Source: US20210030725A1, “RESTORATION OF TRANSMEMBRANE COPPER TRANSPORT” (The Board of Trustees of the University of Illinois, priority 2018, published 2021)

Assays:
[1] = Hinokitiol-promoted release of divalent metals from POPC liposomes (PhenGreen assay); conditions: hinokitiol 10 μM
Protocol: Hinokitiol-promoted release of different divalent metals from POPC liposomes was performed by tracking the quenching of PhenGreen (Fisher P14312) similar to previously reported. Liposomes were prepared as described above with an internal buffer consisting of either 10 mM ascorbate in a 5 mM MES/Tris buffer at pH=7.0 (for Fe^2+), 10 mM citrate in a 5 mM MES/Tris buffer at pH=7.0 (for Cu^2+), or a 5 mM MES/Tris buffer at pH=7.0 (for Mn^2+, Co^2+, and Zn^2+). In all cases, liposomes were prepared using 5 mM of either FeCl2, MnCl2, CoCl2, NiCl2, ZnCl2, or CuCl2 added to the internal buffer. […] The fluorescence was monitored with excitation at 500 nm and emission at 530 nm over 1 hour. After one hour, the liposomes were lysed with Triton-X and the fluorescence was recorded. […] The DMSO-treated and hinokitiol-treated liposomes had similar fluorescence quenching levels after lysis. The total amount of metal efflux was determined using standard curves of fluorescence quenching in external buffer with 10 μM PhenGreen and known concentrations of each metal. The t1/2 values were calculated using an asymptotic fit in OriginPro. […] Hinokitiol (10 μM) rapidly promotes the efflux of multiple divalent metals from POPC liposomes as determined by a PhenGreen assay. […] Quantification of metal release was done by comparison of fluorescence quenching to a standard curve for each metal. […]

[2] = test system: DELccc2 yeast strain missing the intracellular ATP-driven copper pump CCC2; experiment: Growth rescue of DELccc2 yeast in liquid culture; assay type: cell-based
Protocol: (§1) Growth rescue in yeast was performed using 10 μM hinokitiol in SD media in a 96-well plate unless otherwise noted. Wild type and DELccc2 yeast strain treated with vehicle (DMSO) or hinokitiol were performed under identical conditions using a normal iron-containing, no-copper containing SD media, this time supplemented with 1.5 or 2 μM CuCl2. Yeast were grown overnight in YPD media and diluted at an OD600 of 0.1 in SD media, diluted 10-fold, and incubated at 30° C. with continuous shaking (200 rpm). The OD600 was obtained 48 hours after inoculation unless otherwise noted. Small molecule dose-response with hinokitiol was determined by addition of the small molecule (40× stock solution in DMSO) to give the indicated final concentrations. Copper dose-response studies were performed in low copper SD media without CuCl2 containing the indicated concentrations of hinokitiol (from a 40× stock solution in DMSO). For dose-dependent hinokitiol-promoted rescue at increasing dosages of CuCl2, SD media was made containing the indicated concentrations of CuCl2 from 1000× CuCl2 stocks before adding hinokitiol (40× stock solution in DMSO) to give the indicated final concentrations. […]

[3] = test system: iron transporter-deficient yeast missing the FetFtr1 transport complex; experiment: Growth rescue of iron transporter-deficient yeast; assay type: cell-based, Saccharomyces cerevisiae; conditions: respiratory and non-permissive copper conditions
[4] = UV-vis titration with copper (II) chloride; assay type: binding
[5] = Partitioning of chelator:copper complex between octanol and water; assay type: physicochemical; conditions: hinokitiol:copper complex
Protocol: Biophysical experiments were performed to better understand the capacity of hinokitiol to bind and transport copper. […] Unlike the aforementioned water-soluble copper chelators, the hinokitiol:copper complex primarily partitioned into the nonpolar solvents over water (FIG. 4A). To expand, 95% of the hinokitiol:copper complex partitioned into octanol over water as opposed to >85% of the currently available water-soluble chelators partitioned into water over octanol.

[6] = Copper (II) transport across liposomal membranes, hinokitiol vs water-soluble chelators; conditions: relative to controls
[7] = test system: DELccc2 yeast strain missing the intracellular ATP-driven copper pump CCC2; experiment: Growth rescue of DELccc2 yeast on solid media; assay type: cell-based
Protocol: Growth rescue in yeast was performed on SD-agar plates in 50 mM MES/Tris buffer at pH=7.0 containing 2% agarose gel, and 10 μM hinokitiol (from 40× stock in DMSO). Wild type and DELccc2 yeast strain controls treated with vehicle (DMSO) were performed under identical conditions using a no-copper containing SD media supplemented with 0.5 μM CuCl2 in the absence of hinokitiol. Yeast were grown overnight in YPD media and diluted to an optical density at 600 nm (OD600) of 1.0 in low copper SD media before 10-fold serial dilution and inoculation of these yeast suspensions (10 μL per dot) onto the low copper SD-agar plates described above containing either DMSO vehicle or hinokitiol (10 μM from 40× DMSO stock). For disc diffusion assays, yeast were grown overnight in YPD media and diluted to an OD600=0.1 in low copper SD media and streaked onto low copper SD-agar plates containing 0.5 μM CuCl2. Disc diffusion assays were performed using either DMSO or 10 mM stock solutions (in DMSO) of hinokitiol on low copper SD-agar plates containing 0.5 μM CuCl2 streaked with the appropriate yeast strain (from OD600=0.1 in low copper SD media). Images were taken 48 hours after inoculation and incubation at 30° C. unless otherwise noted. […]

[8] = test system: Δctr1Δctr3 yeast missing the passive copper transporters Ctr1Ctr3; experiment: Growth rescue of Δctr1Δctr3 yeast; assay type: cell-based, Saccharomyces cerevisiae; conditions: respiratory and non-permissive conditions, copper dependent, maximum at intermediate hinokitiol concentrations
Protocol: as §1, with “DELctr1DELctr3” for “DELccc2”, “strain controls” for “strain”, “media,” for “media, this time”, “1.0” for “1.5 or 2”

[9] = Stoichiometric metal competition, ICP-MS quantification of extracted hinokitiol-bound metal; assay type: binding; conditions: 1 mM each divalent metal, 1 mM hinokitiol, 10 mM Mes/Tris, 1:1 MeOH:H2O, pH 7.0, N=6
Protocol: Hinokitiol binds to and sequesters copper with a greater affinity than any other metal (including iron). Stoichiometric competition experiments with 1 mM of each divalent metal and 1 mM hinokitiol in a 10 mM Mes/Tris buffer in 1:1 MeOH:H2O at pH=7.0. Hinokitiol binds many metals by ICP-MS quantification of extracted hinokitiol-bound metal. The metal in the organic layer was determined to be in the order of Cu>Fe>Mn≈Zn>Co>Ni. ND=Not detected. N=6. (FIG. 2)

**Q.** What does the source list for `CC(C)c1cccc(=O)c(O)c1` [hinokitiol, 2-hydroxy-6-propan-2-ylcyclohepta-2,4,6-trien-1-one]?
**A.** transport of MnII from liposomes [1]: unable to transport; growth rescue [2]: Vigorous rescue; restoration of yeast growth [3]: unable to restore growth; copper binding (complex formation, shift in UV-vis spectra) [4]: readily binds copper; share of copper complex partitioned into octanol over water [5]: 95%; copper (II) transport across liposomal membranes [6]: transported copper (II) across liposomal membranes; growth rescue [7]: Vigorous rescue; restoration of yeast growth [8]: dose-dependently restored yeast growth up to wild type control levels; order of metal in the organic layer (extracted hinokitiol-bound metal) [9]: Cu>Fe>Mn≈Zn>Co>Ni
